Laboratory results as given in PubChem BioAssay (NCI).
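Five compound concentrations were applied to cells in 96-well plates for 48 hours; endpoints were derived by simple linear interpolation of the resulting dose-response curve. TGI: concentration producing complete growth inhibition.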

Key:
Test in all cases: NCI anticancer screen, dose series, 48 h
NCI-H522 lung = test system: NCI-H522 lung
SK-MEL-28 melanoma = test system: SK-MEL-28 melanoma
SK-MEL-2 melanoma = test system: SK-MEL-2 melanoma
HS 578T breast = test system: HS 578T breast
OVCAR-8 ovarian = test system: OVCAR-8 ovarian
UACC-257 melanoma = test system: UACC-257 melanoma
MOLT-4 leukemia = test system: MOLT-4 leukemia
NCI-H460 lung = test system: NCI-H460 lung
OVCAR-3 ovarian = test system: OVCAR-3 ovarian
SNB-75 CNS = test system: SNB-75 CNS
NCI-H23 lung = test system: NCI-H23 lung
HL-60(TB) leukemia = test system: HL-60(TB) leukemia
KM12 colon = test system: KM12 colon
NCI/ADR-RES ovarian = test system: NCI/ADR-RES ovarian
TK-10 renal = test system: TK-10 renal
UO-31 renal = test system: UO-31 renal
MDA-MB-435 = test system: MDA-MB-435
BT-549 breast = test system: BT-549 breast
HOP-62 NSCLC = test system: HOP-62 NSCLC
SK-OV-3 ovarian = test system: SK-OV-3 ovarian
HCT-15 colon = test system: HCT-15 colon
A498 renal = test system: A498 renal
OVCAR-4 ovarian = test system: OVCAR-4 ovarian
A549 NSCLC = test system: A549 NSCLC
U251 CNS = test system: U251 CNS
MCF7 breast = test system: MCF7 breast
EKVX NSCLC = test system: EKVX NSCLC
T-47D breast = test system: T-47D breast
SK-MEL-5 melanoma = test system: SK-MEL-5 melanoma
CCRF-CEM leukemia = test system: CCRF-CEM leukemia
SF-539 CNS = test system: SF-539 CNS
HT29 colon = test system: HT29 colon
UACC-62 melanoma = test system: UACC-62 melanoma
HCC-2998 colon = test system: HCC-2998 colon
K-562 leukemia = test system: K-562 leukemia
DU-145 prostate = test system: DU-145 prostate
SF-295 CNS = test system: SF-295 CNS
LOX IMVI melanoma = test system: LOX IMVI melanoma
MALME-3M melanoma = test system: MALME-3M melanoma
SW-620 colon = test system: SW-620 colon
IGROV1 ovarian = test system: IGROV1 ovarian
SR leukemia = test system: SR leukemia
M14 melanoma = test system: M14 melanoma
SN12C renal = test system: SN12C renal
CAKI-1 renal = test system: CAKI-1 renal
ACHN renal = test system: ACHN renal
MDA-N = test system: MDA-N
786-0 renal = test system: 786-0 renal
HOP-92 NSCLC = test system: HOP-92 NSCLC
SF-268 CNS = test system: SF-268 CNS
MDA-MB-231 breast = test system: MDA-MB-231 breast
HCT-116 colon = test system: HCT-116 colon
COLO 205 colon = test system: COLO 205 colon
NCI-H226 lung = test system: NCI-H226 lung
SNB-19 CNS = test system: SNB-19 CNS
RXF 393 renal = test system: RXF 393 renal
RPMI-8226 leukemia = test system: RPMI-8226 leukemia

SMILES: O/N=C1\C/C(=N\O)c2c(Br)sc(Br)c21
- TGI (NCI-H522 lung): 32.6 µM
- TGI (SK-MEL-28 melanoma): 63.2 µM
- TGI (SK-MEL-2 melanoma): > 100 µM
- TGI (HS 578T breast): 30.9 µM
- TGI (OVCAR-8 ovarian): 40.3 µM
- TGI (UACC-257 melanoma): > 100 µM
- TGI (MOLT-4 leukemia): 92.7 µM
- TGI (NCI-H460 lung): > 100 µM
- TGI (OVCAR-3 ovarian): > 100 µM
- TGI (SNB-75 CNS): 51.3 µM
- TGI (NCI-H23 lung): 59.3 µM
- TGI (HL-60(TB) leukemia): > 100 µM
- TGI (KM12 colon): > 100 µM
- TGI (NCI/ADR-RES ovarian): > 100 µM
- TGI (TK-10 renal): > 100 µM
- TGI (UO-31 renal): > 100 µM
- TGI (MDA-MB-435): > 100 µM
- TGI (BT-549 breast): > 100 µM
- TGI (HOP-62 NSCLC): > 100 µM
- TGI (SK-OV-3 ovarian): > 100 µM
- TGI (HCT-15 colon): 41.7 µM
- TGI (A498 renal): > 100 µM
- TGI (OVCAR-4 ovarian): > 100 µM
- TGI (A549 NSCLC): > 100 µM
- TGI (U251 CNS): > 100 µM
- TGI (MCF7 breast): > 100 µM
- TGI (EKVX NSCLC): > 100 µM
- TGI (T-47D breast): > 100 µM
- TGI (SK-MEL-5 melanoma): > 100 µM
- TGI (CCRF-CEM leukemia): 37.3 µM
- TGI (SF-539 CNS): > 100 µM
- TGI (HT29 colon): > 100 µM
- TGI (UACC-62 melanoma): > 100 µM
- TGI (HCC-2998 colon): 50.2 µM
- TGI (K-562 leukemia): > 100 µM
- TGI (DU-145 prostate): > 100 µM
- TGI (SF-295 CNS): > 100 µM
- TGI (LOX IMVI melanoma): 45.2 µM
- TGI (MALME-3M melanoma): > 100 µM
- TGI (SW-620 colon): 72.7 µM
- TGI (IGROV1 ovarian): 97.8 µM
- TGI (SR leukemia): > 100 µM
- TGI (M14 melanoma): > 100 µM
- TGI (SN12C renal): > 100 µM
- TGI (CAKI-1 renal): 60 µM
- TGI (ACHN renal): > 100 µM
- TGI (MDA-N): > 100 µM
- TGI (786-0 renal): > 100 µM
- TGI (HOP-92 NSCLC): > 100 µM
- TGI (SF-268 CNS): 96.5 µM
- TGI (MDA-MB-231 breast): > 100 µM
- TGI (HCT-116 colon): > 100 µM
- TGI (COLO 205 colon): > 100 µM
- TGI (NCI-H226 lung): > 100 µM

SMILES: CCOP(=O)(OCC)C(Nc1ccc(Cl)cc1)c1ccc(F)cc1 (configuration not stated)
- TGI (NCI-H522 lung): 49.7 µM
- TGI (SNB-19 CNS): > 100 µM
- TGI (SK-MEL-28 melanoma): 41.7 µM
- TGI (SK-MEL-2 melanoma): 35.8 µM
- TGI (HS 578T breast): 54.4 µM
- TGI (OVCAR-8 ovarian): > 100 µM
- TGI (UACC-257 melanoma): 44 µM
- TGI (MOLT-4 leukemia): 61.7 µM
- TGI (NCI-H460 lung): 48.2 µM
- TGI (OVCAR-3 ovarian): > 100 µM
- TGI (SNB-75 CNS): 84.8 µM
- TGI (RXF 393 renal): 67.3 µM
- TGI (NCI-H23 lung): 53.9 µM
- TGI (HL-60(TB) leukemia): 54.1 µM
- TGI (KM12 colon): > 100 µM
- TGI (NCI/ADR-RES ovarian): 87.3 µM
- TGI (TK-10 renal): > 100 µM
- TGI (UO-31 renal): 59.9 µM
- TGI (MDA-MB-435): 39.7 µM
- TGI (HOP-62 NSCLC): 48.2 µM
- TGI (SK-OV-3 ovarian): > 100 µM
- TGI (HCT-15 colon): > 100 µM
- TGI (A498 renal): 58.7 µM
- TGI (OVCAR-4 ovarian): > 100 µM
- TGI (A549 NSCLC): > 100 µM
- TGI (U251 CNS): 41.3 µM
- TGI (EKVX NSCLC): > 100 µM
- TGI (T-47D breast): 40.8 µM
- TGI (SK-MEL-5 melanoma): 32.8 µM
- TGI (CCRF-CEM leukemia): 93.1 µM
- TGI (SF-539 CNS): 49 µM
- TGI (HT29 colon): 62.9 µM
- TGI (UACC-62 melanoma): 29.3 µM
- TGI (HCC-2998 colon): 59.1 µM
- TGI (K-562 leukemia): 68.5 µM
- TGI (DU-145 prostate): 91.4 µM
- TGI (SF-295 CNS): 44.8 µM
- TGI (LOX IMVI melanoma): 29.1 µM
- TGI (MALME-3M melanoma): 42.3 µM
- TGI (RPMI-8226 leukemia): 67.6 µM
- TGI (SR leukemia): > 100 µM
- TGI (M14 melanoma): 37.2 µM
- TGI (SN12C renal): 53.2 µM
- TGI (CAKI-1 renal): 83.6 µM
- TGI (ACHN renal): 97.2 µM
- TGI (MDA-N): 43.1 µM
- TGI (786-0 renal): 43.4 µM
- TGI (HOP-92 NSCLC): 59.1 µM
- TGI (SF-268 CNS): 61.2 µM
- TGI (MDA-MB-231 breast): 74.6 µM
- TGI (HCT-116 colon): 44.5 µM
- TGI (COLO 205 colon): 87.1 µM
- TGI (NCI-H226 lung): 88 µM
